By IC50 is commonly meant the concentration that inhibits the measured activity by half.

Where a name gives a salt, the structure may show the parent alone.

For 21 compounds, IC50 results are on record in patent publication US7531554B2, “4-oxoquinoline compound and use thereof as HIV integrase inhibitor” (Japan Tobacco Inc., priority 2004, dated 2009).

The assay concerns the target T1, HIV integrase (Human immunodeficiency virus type 1 group M subtype B, UniProt P12497, F1332H).
T1 construct: HIV integrase full length gene (J. Virol., 67, 425-437 (1993)) in which phenylalanine at codon 185 was substituted by histidine; made in house; host or cells: Escherichia coli BL21(DE3)
Briefly: Determination of enzyme (HIV integrase) inhibitory activity. Format: biochemical. Conditions: recombinant integrase protein (F185H), donor DNA/target DNA, absorbance at 450 nm. The protocol:
HIV integrase full length gene (J. Virol., 67, 425-437 (1993)) in which phenylalanine at codon 185 was substituted by histidine, was inserted between the restriction enzyme NdeI and XhoI sites of plasmid pET21a(+) (Novagen), whereby an integrase expression vector pET21a-IN-F185H was constructed.
Escherichia coli recombinant BL21(DE3) transformed with plasmid pET21a-IN-F185H obtained in (i) was shake cultured at 30° C. in a liquid medium containing ampicillin. When the culture reached the logarithmic growth phase, isopropyl-β-D-thiogalactopyranoside was added to promote expression of integrase gene. The culture was continued for 3 hr to promote accumulation of the integrase protein. The recombinant E. coli was collected in pellets by centrifugal separation and preserved at −80° C.
The E. coli was suspended in Lysis buffer (20 mM HEPES (pH 7.5), 5 mM DTT, 10 mM CHAPS, 10% glycerol) containing 1M sodium chloride and subjected to repeat pressurization and depressurization for rupture, and centrifugal separation at 4° C., 40,000×g, 60 min to recover a water-soluble fraction (supernatant). This was diluted 10-fold with Lysis buffer free of sodium chloride, mixed with SP-Sepharose (Pharmacia Corporation) and stirred at 4° C. for 60 min to allow adsorption of integrase protein to the resin. The resin was washed with Lysis buffer containing 100 mM sodium chloride and the integrase protein was eluted with Lysis buffer containing 1M sodium chloride.
The eluted integrase protein solution was subjected to a Superdex 75 (Pharmacia Corporation) column for gel filtration. The protein was eluted with Lysis buffer containing 1M sodium chloride.
The obtained fractions of the integrase protein were collected and preserved at −80° C.
The following DNA synthesized by Greiner was dissolved in TE buffer (10 mM Tris-hydrochloric acid (pH 8.0), 1 mM EDTA) and mixed with donor DNA, target DNA, and each complementary strand (+ and − strands) to 1 μM. The mixture was heated at 95° C. for 5 min, 80° C. for 10 min, 70° C. for 10 min, 60° C. for 10 min, 50° C. for 10 min and 40° C. for 10 min and kept at 25° C. to give a double stranded DNA, which was used for the test. Donor DNA ([…] attached to the 5′ terminal) Donor + strand: 5′-Biotin-ACCCTTTTAGTCAGTGTGGAAAATCTCTAGCA-3′ (SEQ ID NO:1) Donor − strand: 5′-ACTGCTAGAGATTTTCCACACTGACTAAAAG-3′ (SEQ ID NO:2) Target DNA (+, − strands both having digoxigenin added at 3′ terminal) Target + strand: 5′-TGACCAAGGGCTAATTCACT-Dig-3′ (SEQ ID NO:3) Target − strand: 5′-AGTGAATTAGCCCTTGGTCA-Dig-3′ (SEQ ID NO:4)
The donor DNA was diluted with TE buffer to 10 nM, of which 50 μl was added to each well of streptavidin-coated microtiter plate (Roche) and allowed to adsorb at 37° C. for 60 min. The plate was washed with phosphate buffer (Dulbecco's PBS, Sanko Junyaku Co., Ltd.) containing 0.1% Tween 20 and phosphate buffer. Then, an enzyme reaction mixture (70 μl), a test substance (10 μl) diluted with the reaction mixture and 100 μg/ml integrase protein (10 μl) were added to each well and reacted at 37° C. for 60 min.
Then, 50 nM target DNA (10 μl) was added, reacted at 37° C. for 10 min and washed with phosphate buffer containing 0.1% Tween 20 to stop the reaction.
Then, 100 mU/ml peroxidase labeled anti-digoxigenin antibody solution (Roche, 100 μl) was added, and the mixture was reacted at 37° C. for 60 min, followed by washing with phosphate buffer containing 0.1% Tween 20.
A peroxidase color solution (Bio Rad, 100 μl) was added and allowed to react at room temperature for 4 min. The color reaction was stopped by adding 1N sulfuric acid (100 μl). The absorbance at 450 nm was measured.
The HIV integrase inhibitory activity (IC50) of the compound of the present invention was calculated from the inhibition rate according to the following formula. […]

For the compound `COc1cc2c(cc1C(O)c1cccc(Cl)c1F)c(=O)c(C(=O)O)cn2[C@H](CO)C(C)C` (single isomer, unassigned) [Example 7-7], the 50% inhibitory concentration (IC50) is 17 nM.
The same measure for `COc1cc2c(cc1C(O)c1cccc(Cl)c1F)c(=O)c(C(=O)O)cn2[C@H](CO)C(C)C` (single isomer, unassigned) [Example 7-8]: 39 nM; for `COc1cc2c(cc1Cc1ccc(F)c(Cl)c1)c(=O)c(C(=O)O)cn2[C@H](CO)C(C)C` [Example 1-1, 6-(3-chloro-4-fluorobenzyl)-1-((1S)-1-(hydroxymethyl)-2-methylpropyl)-7-methoxy-4-oxo-1,4-dihydroquinoline-3-carboxylic acid]: 19 nM.
The value for `COc1cc2c(cc1Cc1c(F)ccc(Cl)c1F)c(=O)c(C(=O)O)cn2[C@H](CO)C(C)C` [Example 1-2, 6-(3-chloro-2,6-difluorobenzyl)-1-((1S)-1-(hydroxymethyl)-2-methylpropyl)-7-methoxy-4-oxo-1,4-dihydroquinoline-3-carboxylic acid] was 3.8 nM; that for `COc1cc2c(cc1Cc1c(O)ccc(Cl)c1F)c(=O)c(C(=O)O)cn2[C@H](CO)C(C)C` [Example 1-3, 6-(3-chloro-2-fluoro-6-hydroxybenzyl)-1-((1S)-1-(hydroxymethyl)-2-methylpropyl)-7-methoxy-4-oxo-1,4-dihydroquinoline-3-carboxylic acid] was 7.8 nM.
The value for `COc1cc2c(cc1Cc1ccc(O)c(Cl)c1F)c(=O)c(C(=O)O)cn2[C@H](CO)C(C)C` [Example 1-4, 6-(3-chloro-2-fluoro-4-hydroxybenzyl)-1-((1S)-1-(hydroxymethyl)-2-methylpropyl)-7-methoxy-4-oxo-1,4-dihydroquinoline-3-carboxylic acid] was 25 nM.
Take `COc1cc2c(cc1Cc1ccc(F)c(Cl)c1F)c(=O)c(C(=O)O)cn2[C@H](CO)C(C)C` [Example 1-5, 6-(3-chloro-2,4-difluorobenzyl)-1-((1S)-1-(hydroxymethyl)-2-methylpropyl)-7-methoxy-4-oxo-1,4-dihydroquinoline-3-carboxylic acid]: the 50% inhibitory concentration (IC50) is 3.3 nM.
The value for `COc1cc2c(cc1Cc1cc(O)cc(Cl)c1F)c(=O)c(C(=O)O)cn2[C@H](CO)C(C)C` [Example 1-6, 6-(3-chloro-2-fluoro-5-hydroxybenzyl)-1-((1S)-1-(hydroxymethyl)-2-methylpropyl)-7-methoxy-4-oxo-1,4-dihydroquinoline-3-carboxylic acid] was 4.6 nM.
Consider `COc1cc2c(cc1Cc1cc(F)c(F)c(Cl)c1F)c(=O)c(C(=O)O)cn2[C@H](CO)C(C)C` [Example 1-7, 6-(3-chloro-2,4,5-trifluorobenzyl)-1-((1S)-1-(hydroxymethyl)-2-methylpropyl)-7-methoxy-4-oxo-1,4-dihydroquinoline-3-carboxylic acid], for which the 50% inhibitory concentration (IC50) was 5.5 nM.
The same measure for `COc1cc2c(cc1Cc1ccc(F)cc1C(F)(F)F)c(=O)c(C(=O)O)cn2[C@H](CO)C(C)C` [Example 1-10, 6-(4-fluoro-2-(trifluoromethyl)benzyl)-1-((1S)-1-(hydroxymethyl)-2-methylpropyl)-7-methoxy-4-oxo-1,4-dihydroquinoline-3-carboxylic acid]: 280 nM.
The same measure for `COc1cc2c(cc1Cc1c(F)cccc1C(F)(F)F)c(=O)c(C(=O)O)cn2[C@H](CO)C(C)C` [Example 1-12, 6-(2-fluoro-6-(trifluoromethyl)benzyl)-1-((1S)-1-(hydroxymethyl)-2-methylpropyl)-7-methoxy-4-oxo-1,4-dihydroquinoline-3-carboxylic acid]: 260 nM; for `COc1cc2c(cc1Cc1cccc(Cl)c1F)c(=O)c(C(=O)O)cn2[C@H](CO)C1CCOCC1` [Example 2-1, 6-(3-chloro-2-fluorobenzyl)-1-((1S)-2-hydroxy-1-(tetrahydropyran-4-yl)ethyl)-7-methoxy-4-oxo-1,4-dihydroquinoline-3-carboxylic acid]: 4.6 nM.
The value for `COc1cc2c(cc1Cc1cccc(Cl)c1F)c(=O)c(C(=O)O)cn2C(CO)C1CCNCC1` (stereo not drawn) [Example 2-2, 6-(3-chloro-2-fluorobenzyl)-1-(2-hydroxy-1-(piperidin-4-yl)ethyl)-7-methoxy-4-oxo-1,4-dihydroquinoline-3-carboxylic acid hydrochloride] was 12 nM.
`COc1cc2c(cc1Cc1cccc(Cl)c1F)c(=O)c(C(=O)O)cn2[C@H](CO)CSC` [Example 2-3, 6-(3-chloro-2-fluorobenzyl)-1-((1R)-1-(hydroxymethyl)-2-(methylthio)ethyl)-7-methoxy-4-oxo-1,4-dihydroquinoline-3-carboxylic acid]: the IC50 was 6.8 nM.
In the case of `COc1cc2c(cc1Cc1cccc(Cl)c1F)c(=O)c(C(=O)O)cn2[C@H](CO)CS(C)(=O)=O` [Example 2-4, 6-(3-chloro-2-fluorobenzyl)-1-((1R)-1-(hydroxymethyl)-2-mesylethyl)-7-methoxy-4-oxo-1,4-dihydroquinoline-3-carboxylic acid], the 50% inhibitory concentration (IC50) was found to be 10 nM.
With `COc1cc2c(cc1Cc1cccc(Cl)c1F)c(=O)c(C(=O)O)cn2[C@H](CO)C(C)(C)S(C)(=O)=O` [Example 2-6, 6-(3-chloro-2-fluorobenzyl)-1-((1R)-1-(hydroxymethyl)-2-mesyl-2-methylpropyl)-7-methoxy-4-oxo-1,4-dihydroquinoline-3-carboxylic acid], the IC50 is 3.8 nM.
The value for `CSC[C@@H](CO)n1cc(C(=O)O)c(=O)c2cc(Cc3cccc(Cl)c3F)ccc21` [Example 2-7, 6-(3-chloro-2-fluorobenzyl)-1-((1R)-1-(hydroxymethyl)-2-(methylthio)ethyl)-4-oxo-1,4-dihydroquinoline-3-carboxylic acid] was 8.1 nM; that for `CS(=O)(=O)C[C@@H](CO)n1cc(C(=O)O)c(=O)c2cc(Cc3cccc(Cl)c3F)ccc21` [Example 2-8, 6-(3-chloro-2-fluorobenzyl)-1-((1R)-1-(hydroxymethyl)-2-mesylethyl)-4-oxo-1,4-dihydroquinoline-3-carboxylic acid] was 20 nM.
With `CC(C)([C@@H](CO)n1cc(C(=O)O)c(=O)c2cc(Cc3cccc(Cl)c3F)ccc21)S(C)(=O)=O` [Example 2-10, 6-(3-chloro-2-fluorobenzyl)-1-((1R)-1-(hydroxymethyl)-2-mesyl-2-methylpropyl)-4-oxo-1,4-dihydroquinoline-3-carboxylic acid], the concentration for half-maximal inhibition (IC50) worked out at 4.2 nM.
The value for `COc1cc2c(cc1Cc1cccc(Cl)c1F)c(=O)c(C(=O)O)cn2[C@H](CO)[C@@H](C)OC` [Example 2-11, 6-(3-chloro-2-fluorobenzyl)-1-((1R,2R)-1-(hydroxymethyl)-2-methoxypropyl)-7-methoxy-4-oxo-1,4-dihydroquinoline-3-carboxylic acid] was 5 nM; that for `COc1cc2c(cc1Cc1cccc(Cl)c1F)c(=O)c(C(=O)O)cn2[C@H](CO)CCSC` [Example 2-12, 6-(3-chloro-2-fluorobenzyl)-1-((1S)-1-(hydroxymethyl)-3-(methylthio)propyl)-7-methoxy-4-oxo-1,4-dihydroquinoline-3-carboxylic acid] was 5.7 nM.
